Measurements taken from patent publication US20060263781A1, “Regulation of cell surface proteins” (priority 2003, published 2006).

Legend:
CFTR [1] = assay: Enzyme linked surface CFTR assay in T84 cell monolayers; format: cell-based, human; settings: for CFTR surface expression, absorbance at 655 nm normalised to the control group: forskolin stimulated T84 cell monolayers, 33 μM nocodazole for 3 hours, mean±SD; for CFTR surface expression, absorbance at 655 nm normalised to the nonsense treated group: 2 μM oligonucleotide for 24 hours, mean±1 SD
Description: T84 cell monolayers cultured on collagen coated glass coverslips were incubated in either chloride buffer with 10 μM forskolin or chloride buffer only for 30 minutes at 37° C. in 5% CO2 then fixed with 4% paraformaldehyde for 20 minutes at 4° C. The T84 cell monolayers were incubated for 1 hour firstly with CFTR (MA1-935) antibody (Walker et al., 1995) diluted 1:500 followed by HRP anti-mouse IgG diluted 1:1000. T84 cell monolayers were blocked prior to each incubation for 10 minutes in PBS containing 10% FBS and washed following each incubation 4 times in PBS. The coverslips were then placed into a clean 24 well plate and incubated for 30 minutes with 500 μl of 3′3′5′5′ Tetra methyl benzidine. The supernatant from each well was transferred to a cuvette and absorbance determined at 655 nm in a Beckman DU650 spectrophotometer. Absorbance was also determined at 655 nm for primary antibody negative controls and that amount was subtracted from the absorbance in primary antibody positive monolayers to determine their assay result.
The CFTR surface expression is reported as the absorbance measured at 655 nm, normalised to the mean absorbance for the control group within individual experiments. To determine the effects of treatment, normalised absorbance at 655 nm was compared between groups. Two group comparisons were made using the Student t test.
(§1) Cultured T84 colon cancer cell monolayers grown in collagen coated 24 well plates or on plastic coverslips were used as a model of the gastrointestinal epithelium. Incubation of monolayers inoculated with EPEC ([…]) for 6-9 hours was used to model EPEC infection and was compared with HB101, a non-pathogenic control. Antisense oligonucleotides were used to reduce tropomyosin 5a and 5b expression. An immuno-colourimetric assay was used to assess CFTR surface expression and intra-cellular MQAE fluorescence was used to assess chloride efflux.

T84 cell monolayers = assay: MQAE chloride efflux assay; format: cell-based, human; settings: for cumulative chloride efflux at 15 minutes, percentage increase in fluorescence normalised to the control group: nocodazole 33 μM for 3 hours, mean±SD; for cumulative chloride efflux at 15 minutes, percentage increase in fluorescence normalised to the nonsense group: 2 μM oligonucleotide 24 hours, 10 μM forskolin, mean±1 SD
Description: T84 cell monolayers, cultured on 24 or 96 well plates were incubated in medium containing 10 mM MQAE for 16 hours. The monolayers were then washed 3 times in chloride buffer (2.4 mM Na2HPO4, 0.6 mM NaH2PO4, 1 mM K2SO4, 1 mM MgSO4, 3.4 mM KCl, 124.6 mM NaCl, 1 mM CaCl2, 10 mM glucose and 10 mM HEPES ). T84 cell monolayers were stimulated with forskolin by incubating with chloride buffer containing 10 μM forskolin for 10 minutes, after which the chloride buffer was removed and replaced with chloride free buffer (2.4 mM Na2HPO4, 0.6 mM NaH2PO4, 1 mM K2SO4, 1 mM MgSO4, 3.4 mM KNO3, 1 mM Ca(NO3)2, 124.6 mM NaNO3, 10 mM glucose and 10 mM HEPES) containing 10 μM forskolin. Repetitive fluorescence measurements were initiated immediately using a fluorescence plate reader (excitation, λ-360 nm; emission, λ-460 nm). Measurements were performed every 30 to 60 seconds for 15 minutes.
Chloride efflux was measured as the percentage increase in fluorescence between baseline and the specified time point. The percentage increase in fluorescence was normalised within experiments to the mean percentage increase in fluorescence in the control group in that experiment. To determine the effects of treatments, the normalised percentage increase in fluorescence was compared between groups. Two group comparisons were made using the Student t test.
as §1

microtubules = assay: β tubulin staining to confirm effect on microtubules; format: cell-based, human; settings: T84 cells, 33 μM nocodazole
Description: Epithelial cell monolayers were trypsinalised using trypsin/EDTA and centrifuged to form a cell pellet. The cells were then resuspended in medium containing either 1 μM jasplakinolide, 20 μM cytochalasin D or 33 μM nocodazole and seeded into poly-d-lysine and collagen coated glass chamber slides. The developing monolayers were then fixed and stained at 10 minutes after seeding. […] Mature T84 cell monolayers were treated with medium containing 20μM cytochalasin D for 3 hours then fixed and stained. Immunofluorescence analysis was then performed as described above.

tropomyosin isoforms = assay: Immunofluorescence localisation of tropomyosin isoforms in T84 cells after treatment; format: cell-based, human; settings: for effect on polarised distribution of αf9d staining: T84 cell monolayers, 2 μM oligonucleotide for 24 hours
Description: (§2) Cells were washed in 2% foetal bovine serum (FBS) in phosphate buffered saline (PBS) then fixed with 4% paraformaldehyde. They were permeabilised with 100% methanol, chilled to −80° C., for 20 minutes. Cells were incubated at room temperature with primary and secondary antibodies for 1 hour with washes performed with 2% FBS in PBS 3 times for 10 minutes after each incubation. Coverslips were mounted onto the slides with the anti-fade reagent DABCO.
(§3) Fluorescence was examined with a confocal laser scanning microscope (Leica Microsystems, Wetzler, Germany) using a 63× oil emersion objective. The distribution of fluorophores was measured by scanning at 488 nm for FITC and 568 nm for rhodamine using 8 line averages to eliminate noise. Images were taken in the vertical (xz) and horizontal (xy) plane. Images in the horizontal plane were constructed by overlaying sections taken at 1 μm steps from the apical to the basal region of the cells.
Epithelial cell monolayers were trypsinalised using trypsin/EDTA and centrifuged to form a cell pellet. The cells were then resuspended in medium containing either 1 μM jasplakinolide, 20 μM cytochalasin D or 33 μM nocodazole and seeded into poly-d-lysine and collagen coated glass chamber slides. The developing monolayers were then fixed and stained at 10 minutes after seeding. The effect of nocodazole on microtubules was confirmed by staining with antibodies to β tubulin and comparing with untreated cells. Mature T84 cell monolayers were treated with medium containing 20μM cytochalasin D for 3 hours then fixed and stained. Immunofluorescence analysis was then performed as described above.
The sequence of the antisense and nonsense phosphorothioated oligonucleotides to Tm5a and Tm5b were 5′-[…] (SEQ ID NO:14) and 5′-[…] (SEQ ID NO:15) respectively. These were designed from the exon 1b sequence of the human αTMfast gene (Novy et al., 1993, Cell Motility & the Cytoskeleton 25, 267-281). T84 cell monolayers were grown to confluence on coverslips, in glass chamber slides or 24 well plates. The oligonucleotides were applied at a concentration of 2 μM with Lipofectin Reagent at 10 μg/ml according to the manufacturers instructions. The T84 cell monolayers were then incubated with the oligonucleotide for 24 hours at 37° C. in 5% CO2 after which time they were used for experiments that required oligonucleotide pretreatment.

CFTR [2] = settings: cytochalasin D induced disruption of actin filaments; Prat et al., 1995; cited from earlier work
Tm5a and Tm5b [3] = assay: Apical αf9d antibody staining pixel intensity by confocal microscopy in T84 cell monolayers; format: cell-based, human; settings: 2 μM oligonucleotide for 24 hours, mean±1 SD
Description: as §2, §3
The pixel intensity of Tm antibody staining was measured on images obtained by confocal microscopy. Measurements were made across the apical region and across the central region of monolayers and averaged to obtain the mean pixel intensity for individual monolayers. […]

Tm5a and Tm5b [4] = assay: Western blot (immunoblot) of tropomyosin isoforms in T84 cells; format: cell-based, human; settings: 24 hours exposure, 2 μM, Western blot band density
Description: The sequence of the antisense and nonsense phosphorothioated oligonucleotides to Tm5a and Tm5b were 5′-CAC CGC CUC CAG CGA GCT (SEQ ID NO:14) and 5′-GCT CCA GCC ACG CCG ACT (SEQ ID NO:15) respectively. These were designed from the exon 1b sequence of the human αTMfast gene (Novy et al., 1993, Cell Motility & the Cytoskeleton 25, 267-281). T84 cell monolayers were grown to confluence on coverslips, in glass chamber slides or 24 well plates. The oligonucleotides were applied at a concentration of 2 μM with Lipofectin Reagent at 10 μg/ml according to the manufacturers instructions. The T84 cell monolayers were then incubated with the oligonucleotide for 24 hours at 37° C. in 5% CO2 after which time they were used for experiments that required oligonucleotide pretreatment.
Proteins were extracted from T84 cells using the method of Wessel and Flugge (Wessel and Flugge, 1984). Western blot was performed as described (Percival et al., 2000, Cell Motility & the Cytoskeleton 47, 189-208). […] Bound antibody was detected using HRP-conjugated goat anti-rabbit or goat anti-mouse IgG. The bands were detected using Western Lightening™ chemiluminescence reagent and exposure to x-ray film.
Protein expression was measured as the density of protein bands on Western blot autoradiographs using the computer program Molecular Analyst (Version 1.5, Bio Rad Laboratories, Calif., U.S.A.). […]

For `COC(=O)Nc1nc2ccc(C(=O)c3cccs3)cc2[nH]1` [Nocodazole, nocodazole], the “CFTR surface expression, absorbance at 655 nm normalised to the control group” value (CFTR [1]) was 0.92±0.25, the “CFTR surface expression, absorbance at 655 nm normalised to the control group” value (CFTR [1]; listed as nocodazole) was “failed to elicit any significant change” and the “cumulative chloride efflux at 15 minutes, percentage increase in fluorescence normalised to the control group” value (T84 cell monolayers) was 1.01±0.43. The “cumulative chloride efflux at 15 minutes, percentage increase in fluorescence normalised to the control group” value (T84 cell monolayers; listed as nocodazole) was “failed to elicit any significant change”, the “microtubular structure by β tubulin staining” value (microtubules) was “disrupted normal microtubular structure” and the “distribution of 311 antibody staining 10 minutes post-seeding” value (tropomyosin isoforms; T84 cells pretreated in suspension before seeding (jasplakinolide 1 μM, nocodazole 33 μM)) was “enrichment at the apical surface”.

For `C=C1[C@@H](C)[C@H]2[C@H](Cc3ccccc3)NC(=O)[C@]23[C@H](OC(C)=O)/C=C/[C@@](C)(O)C(=O)[C@@H](C)C/C=C/[C@H]3[C@@H]1O` [cytochalasin D], the “effect on chloride currents through CFTR” value (CFTR [2]) is listed as “increase chloride currents through CFTR” and the “effect on polarised distribution of αf9d staining in established monolayers” value (tropomyosin isoforms; mature T84 cell monolayers, 20 μM cytochalasin D for 3 hours) is listed as “eliminated the polarised distribution of αf9d staining”.

In the case of “5′-GCT CCA GCC ACG CCG ACT (GCTCCAGCCACGCCGACT; all phosphorothioate, sugars by position and methylation of C not given here) [Nonsense, Scrambled nonsense control oligonucleotide]”, the “CFTR surface expression, absorbance at 655 nm normalised to the nonsense treated group” value (CFTR [1]; T84 cell monolayers) is reported as 1±0.42, the “cumulative chloride efflux at 15 minutes, percentage increase in fluorescence normalised to the nonsense group” value (T84 cell monolayers) is reported as 1±0.36 and the “apical αf9d antibody staining pixel intensity” value (Tm5a and Tm5b [3]) is reported as 150.86±48.28. The “effect on polarised distribution of αf9d staining” value (tropomyosin isoforms) was “essentially no effect on the distribution of staining”.

For “5′-CAC CGC CUC CAG CGA GCT (antisense CACCGCCUCCAGCGAGCT; all phosphorothioate, sugars by position and methylation of C not given here) [Antisense phosphorothioated oligonucleotide to Tm5a and Tm5b, targeted to exon 1b of the TPM1 gene]”, the “increase in CFTR surface expression, antisense compared with nonsense controls” value (CFTR [1]; T84 cell monolayers, 2 μM for 24 hours) was 50%, the “CFTR surface expression, absorbance at 655 nm normalised to the nonsense treated group” value (CFTR [1]; T84 cell monolayers) was 1.49±0.78 and the “cumulative chloride efflux at 15 minutes, percentage increase in fluorescence normalised to the nonsense group” value (T84 cell monolayers) was 1.47±0.41. For the same molecule, the “apical αf9d antibody staining pixel intensity” value (Tm5a and Tm5b [3]) was 53.62±31.62, the “mean reduction in Tm5a and Tm5b levels relative to nonsense treatment” value (Tm5a and Tm5b [4]) was 54±13% and the “effect on polarised distribution of αf9d staining” value (tropomyosin isoforms) was “eliminated the polarised distribution of αf9d staining”.
